How the values were obtained:
Assay type in all cases: cell-based
mouse ES cells (AB2-2) [1] = assay: Induction of differentiation of mouse ES cell, change of morphology (Example 7(1)); conditions: minimum concentration at which the change of the morphology was observed; embryoid bodies from mouse ES cells, 25 to 100 μM, cultured 4 days, hematoxylin staining
Description: The culture medium was added to a petri dish having a diameter of 60 mm. Further, 1 10^6 mouse ES cells (AB2-2) which were obtained from Dr. Alan Bradley in The Wellcome Trust Sanger Institute were added thereto, and incubated under 5% CO2 atmosphere at 37° C. for 1 day. Then, the cells were separated using a glass pipet and added to the same petri dish again, and incubated under 5% CO2 atmosphere at 37° C. for 3 days to form embryoid bodies.
Then, the above cultured cell dispersion (100 μL) was added to 96 well plate which was coated with collagen type 1, and was incubated under 5% CO2 atmosphere at 37° C. overnight. Separately, each examined compound was dissolved in a culture medium which was obtained by removing […] and a leukemia inhibitory factor from an ES culture medium and which was used for inducing a differentiation, and the solutions were added each well so that the final concentrations were 25 to 100 μM. As examined compounds, compounds which were synthesized by similar methods to Examples 1 to 6 in addition to the compounds synthesized in Examples 1 to 6 were used. […] In addition, fetal bovine serum was added at a final concentration of 5% and bFGF: basic fibroblast growth factor was added at a final concentration of 2 ng/mL to each well, and the cells were cultured in an adhesive state under 5% CO2 atmosphere at 37° C. for 4 days.
After the above culture, paraformaldehyde was added to each well at a final concentration of 2% to fix the cells. The cells were stained with hematoxylin, and the change of the morphology thereof was observed using an optical microscope. As control, only dimethylsulfoxide was added at a final concentration of 0.5% without adding the examined compound. […] In addition, the minimum concentrations of each examined compound at which the change of the morphology was observed are summarized in Table 2.

mouse ES cells (AB2-2) [2] = assay: Induction of differentiation of mouse ES cell, morphology (Example 10); conditions: 50 μM, 4 days, hematoxylin staining, optical microscope
Description: A culture medium to induce an embryoid bodies used in Example 7 (4 mL) was added to a petri dish having a diameter of 60 mm. Further, 10^6 mouse ES cells (AB2-2) were added thereto, and incubated under 5% CO2 atmosphere at 37° C. for 3 days. The obtained embryoid was added into a […] volume tube. The above petri dish was washed by adding 1 PBS (5 mL), and the PBS was added into the above tube. The half quantity of the obtained cells was transferred to a separate tube, and the tube was stood still at room temperature for 5 minutes. After the supernatant was removed, an NP medium (10.5 mL) used in Example 7 was added. The cells were dispersed well, and the mixture was added to each well of a 96 well plate which was coated with collagen in an amount of 100 μL. The cells were incubated under 5% CO2 atmosphere at 37° C. overnight.
In DMSO, 3,4-dihydroxybenzonitrile (manufactured by Tokyo Chemical Industry Co., Ltd.) was dissolved. The solution was added to each well so that the total amount became 200 μL in a final concentration of 12.5 μM, 25 μM or […]. Further, blood serum and bFGF: basic fibroblast growth factor were added to each well respectively in final concentrations of 5% and 10 ng/mL, and the cells were cultured under 5% CO2 atmosphere at 37° C. for 4 days.
After the cultivation, 100 μL of the culture medium was removed from each well. […]

mouse ES cells (AB2-2) [3] = assay: Combinational effect with retinoic acid, cell count (Example 9); conditions: 4 days; for number of the nervous system cells: average of four experiments
Description: The culture medium was added to a petri dish having a diameter of 60 mm. Further, 1 10^6 mouse ES cells (AB2-2) which were obtained from Dr. Alan Bradley in The Wellcome Trust Sanger Institute were added thereto, and incubated under 5% CO2 atmosphere at 37° C. for 1 day. Then, the cells were separated using a glass pipet and added to the same petri dish again, and incubated under 5% CO2 atmosphere at 37° C. for 3 days to form embryoid bodies. […] Then, the above cultured cell dispersion ([…]) was added to 96 well plate which was coated with collagen type I, and was incubated under 5% CO2 atmosphere at 37° C. overnight. On the next day, the examined compound 5 only or with retinoic acid in combination in each final concentration of 10 nM was added thereto, and the cells were incubated in adhesive state under 5% CO2 atmosphere at 37° C. for 4 days. After the incubation, the cells were washed with PBS, and separated using 0.25% Trypsin. The number of the cells was counted. This experiment was carried out four times, and the average of the counted numbers was obtained. […] In the FIG. 7, “RA” represents retinoic acid.

mouse ES cell = assay: Gene expression analysis by RT-PCR (Example 7(3)); conditions: mouse ES cell treated with 80 μM for 5 days
Description: Differentiation of a mouse ES cell was induced similarly to the above (1) except that the cell was treated with 80 μM of the examined compound 4 for 5 days. From the obtained cell, total RNA was extracted using TRIzol reagent. Using the total RNA, cDNA was synthesized by an ordinary method. A polymerase chain reaction was carried out using the synthesized cDNA as a template and each primer of Oct3/4▪Nanog—a marker of an undifferentiated cell, Nestin—a marker of a neural stem cell, Sox9▪Sox10▪Slug—a marker of a neural crest cell, GATA2—a marker of a mesoderm, Sca-1—a marker of a stem cell, and c-kit—a marker of a hematopoietic stem cell for analyzing the expression of each marker. In addition, for comparison, the expression was similarly analyzed with respect to an undifferentiated mouse ES cell and an embryoid body obtained by culturing a mouse ES cell for 3 days.

## O=C(O)[C@@H]1CSC(c2cccc(OCc3ccccc3)c2OCc2ccccc2)=N1 [examined compound 2, (R)-2-{2,3-Bis(benzyloxy)phenyl}-4,5-dihydrothiazole-4-carboxylic acid]
Mouse ES cells (AB2-2) [1]
  Minimum effective concentration for morphology change: 100 μ M

## N#Cc1ccc(O)c(O)c1 [3,4-dihydroxybenzonitrile]
Mouse ES cells (AB2-2) [2]
  change of the cells' morphology: nervous system cells which had cell processes all around were observed

## COC(=O)c1cc(O)c(O)c(O)c1 [Example 5, Methyl 3,4,5-trihydroxybenzoate]
Mouse ES cells (AB2-2) [3]; compound only, final concentration 10 nM
  number of the nervous system cells: 1.71±0.51 10^6
Mouse ES cells (AB2-2) [3]; each final concentration 10 nM
  increase of the number of nervous system cells with retinoic acid in combination versus compound only: about 1.89 times
Mouse ES cells (AB2-2) [3]; in combination with retinoic acid, each final concentration 10 nM
  number of the nervous system cells: 3.23±0.42 10^6

## 2-(2,3-Dihydroxyphenyl)thiazole-4-carboxylic acid [examined compound 3]
Mouse ES cell
  Slug expression (marker of a neural crest cell): remarkably expressed
  Sox9 expression (marker of a neural crest cell): expressed
  Sox10 expression (marker of a neural crest cell): expressed
Mouse ES cells (AB2-2) [1]
  Minimum inhibitory concentration: 70 μ M 70 μ M

## O=C(O)c1csc(-c2cccc(OCc3ccccc3)c2OCc2ccccc2)n1 [examined compound 1, 2-{2,3-Bis(benzyloxy)phenyl}thiazole-4-carboxylic acid]
Mouse ES cells (AB2-2) [1]
  Minimum effective concentration for morphology change: 50 μ M

Source: patent US20140093960A1, “CELL DIFFERENTIATION INDUCER AND DIFFERENTIATION INDUCING METHOD” (The University of Tokushima, priority 2011, published 2014)
